Assay results from article PMC9462851, “Redox-controlled reorganization and flavin strain within the ribonucleotide reductase R2b–NrdI complex monitored by serial femtosecond crystallography” (eLife, 2022).
Each block holds one molecule with its values, some of them ahead of it.

Key:
[1] = target: T1, BcR2b–NrdI complex (BcR2bMnMn–NrdI) (Bacillus cereus, UniProt Q81G55+Q81G57); test: serial femtosecond crystallography (XFEL), […] Å; format: binding; conditions: Mn(II)/Mn(II) R2b, room temperature
T1 construct: Untagged purification from E. coli BL21(DE3), plasmids pET22b-BcnrdI and pET22b-Bcr2b; NrdI 118 residues, 13,449 Da; R2b 322 residues, 37,017 Da, produced metal-free then Mn(II)-loaded; 1:1 complex, dimer of heterodimers
T1 sequence (Q81G57 1-119): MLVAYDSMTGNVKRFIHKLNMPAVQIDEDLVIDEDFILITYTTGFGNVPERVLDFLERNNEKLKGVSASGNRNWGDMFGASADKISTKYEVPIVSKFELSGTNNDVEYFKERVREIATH
T1 sequence (Q81G55 1-322): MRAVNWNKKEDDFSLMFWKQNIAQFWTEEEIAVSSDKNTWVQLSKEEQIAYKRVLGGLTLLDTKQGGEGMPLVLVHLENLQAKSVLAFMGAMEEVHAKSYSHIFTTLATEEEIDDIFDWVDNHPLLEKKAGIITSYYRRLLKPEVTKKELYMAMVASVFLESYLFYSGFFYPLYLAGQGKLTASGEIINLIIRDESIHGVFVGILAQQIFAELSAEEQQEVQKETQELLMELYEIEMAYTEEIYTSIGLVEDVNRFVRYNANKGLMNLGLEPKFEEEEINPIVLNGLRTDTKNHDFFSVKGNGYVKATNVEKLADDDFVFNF

[2] = target: Bacillus cereus ribonucleotide reductase class Ib R2 subunit (R2b), di-manganese form (Bacillus cereus); test: crystal structure; serial femtosecond crystallography at an XFEL (LCLS MFX), room temperature, 2.0 Å; complex reconstituted in vitro by mixing 0.25 mM BcR2b (with 12 equivalents Mn(II)Cl2) and 0.25 mM BcNrdI in 50 mM Tris-HCl pH 7.5, 20°C; batch crystals with NrdI oxidized (7Z3D) or reduced in the crystal with dithionite to the hydroquinone (7Z3E)

Molecule: Cc1cc2c(cc1C)N(C[C@H](O)[C@H](O)[C@H](O)COP(=O)(O)O)c1[nH]c(=O)[nH]c(=O)c1N2 [FMNhq, hydroquinone flavin mononucleotide]
serial femtosecond crystallography (XFEL), 2.0 Å ([1]; anaerobic, crystals reduced with sodium dithionite, noncovalent FMN in NrdI at the R2b interface): The corresponding structure is denoted BcR2bMnMn–NrdIhq (PDB ID: 7Z3E)

Molecule: Cc1cc2nc3c(=O)[nH]c(=O)nc-3n(C[C@H](O)[C@H](O)[C@H](O)COP(=O)(O)O)c2cc1C [FMNox, flavin mononucleotide]
serial femtosecond crystallography (XFEL), 2.0 Å ([1]; oxidized crystals grown aerobically, noncovalent FMN in NrdI at the R2b interface (R2b Phe17, Gln20)): The structure from these crystals is later referred to as BcR2bMnMn–NrdIox (PDB ID: 7Z3D)

stoichiometry N [2]: 1
B1: Bacillus cereus NrdI (flavoprotein with bound flavin mononucleotide) (natural protein)
chain: MLVAYDSMTGNVKRFIHKLNMPAVQIDEDLVIDEDFILITYTTGFGNVPERVLDFLERNNEKLKGVSASGNRNWGDMFGASADKISTKYEVPIVSKFELSGTNNDVEYFKERVREIAT
